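Test compounds were applied to cells in 96-well plates for 48 hours at 5 doses. At the GI50, growth is halved. At the TGI there is no net growth.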
What was measured:
Assay in all cases: NCI-60 cell line screen, 48 h
OVCAR-4 ovarian = system: OVCAR-4 ovarian
NCI-H522 lung = system: NCI-H522 lung
HCT-116 colon = system: HCT-116 colon
EKVX NSCLC = system: EKVX NSCLC
COLO 205 colon = system: COLO 205 colon
OVCAR-5 ovarian = system: OVCAR-5 ovarian
SF-295 CNS = system: SF-295 CNS
U251 CNS = system: U251 CNS
KM12 colon = system: KM12 colon
786-0 renal = system: 786-0 renal
MALME-3M melanoma = system: MALME-3M melanoma
HS 578T breast = system: HS 578T breast
NCI-H23 lung = system: NCI-H23 lung
IGROV1 ovarian = system: IGROV1 ovarian
UACC-62 melanoma = system: UACC-62 melanoma
NCI-H460 lung = system: NCI-H460 lung
UACC-257 melanoma = system: UACC-257 melanoma
SW-620 colon = system: SW-620 colon
OVCAR-8 ovarian = system: OVCAR-8 ovarian
MDA-MB-231 breast = system: MDA-MB-231 breast
SK-MEL-28 melanoma = system: SK-MEL-28 melanoma
SF-268 CNS = system: SF-268 CNS
SNB-75 CNS = system: SNB-75 CNS
RXF 393 renal = system: RXF 393 renal
T-47D breast = system: T-47D breast
NCI-H226 lung = system: NCI-H226 lung
DU-145 prostate = system: DU-145 prostate
SNB-19 CNS = system: SNB-19 CNS
MDA-MB-435 = system: MDA-MB-435
ACHN renal = system: ACHN renal
PC-3 prostate = system: PC-3 prostate
TK-10 renal = system: TK-10 renal
SN12C renal = system: SN12C renal
SF-539 CNS = system: SF-539 CNS
BT-549 breast = system: BT-549 breast
K-562 leukemia = system: K-562 leukemia
SK-MEL-5 melanoma = system: SK-MEL-5 melanoma
SK-MEL-2 melanoma = system: SK-MEL-2 melanoma
HOP-62 NSCLC = system: HOP-62 NSCLC
OVCAR-3 ovarian = system: OVCAR-3 ovarian
HCC-2998 colon = system: HCC-2998 colon
UO-31 renal = system: UO-31 renal
HOP-92 NSCLC = system: HOP-92 NSCLC
RPMI-8226 leukemia = system: RPMI-8226 leukemia
SR leukemia = system: SR leukemia
CAKI-1 renal = system: CAKI-1 renal
NCI/ADR-RES ovarian = system: NCI/ADR-RES ovarian
A549 NSCLC = system: A549 NSCLC
SK-OV-3 ovarian = system: SK-OV-3 ovarian

In the case of `COC(=O)/C=C1/SC(=Nc2ccc(F)cc2)N(CCc2c[nH]c3ccc(O)cc23)C1=O`, the GI50 (OVCAR-4 ovarian) is reported as 3.37 µM, the TGI (OVCAR-4 ovarian) is reported as 22.7 µM and the GI50 (NCI-H522 lung) is reported as 3.85 µM. For the same compound, the TGI (NCI-H522 lung) was over 100 µM, the GI50 (HCT-116 colon) was 4.89 µM and the TGI (HCT-116 colon) was over 100 µM. For the same compound, the GI50 (EKVX NSCLC) was 20.7 µM, the TGI (EKVX NSCLC) was over 100 µM and the GI50 (COLO 205 colon) was over 100 µM. For the same compound, the TGI (COLO 205 colon) was over 100 µM, the GI50 (OVCAR-5 ovarian) was over 100 µM and the TGI (OVCAR-5 ovarian) was over 100 µM. For the same compound, the GI50 (SF-295 CNS) was 12 µM, the TGI (SF-295 CNS) was 41.3 µM and the GI50 (U251 CNS) was 4.32 µM. The TGI (U251 CNS) was 27.3 µM, the GI50 (KM12 colon) was 5.56 µM and the TGI (KM12 colon) was over 100 µM. It also gave a GI50 (786-0 renal) of 6.85 µM, a TGI (786-0 renal) of 40.1 µM and a GI50 (MALME-3M melanoma) of 12.9 µM. It also gave a TGI (MALME-3M melanoma) of over 100 µM, a GI50 (HS 578T breast) of 4.28 µM and a TGI (HS 578T breast) of 35.7 µM. The GI50 (NCI-H23 lung) was 7.49 µM, the TGI (NCI-H23 lung) was over 100 µM and the GI50 (IGROV1 ovarian) was 5.79 µM. It also gave a TGI (IGROV1 ovarian) of over 100 µM, a GI50 (UACC-62 melanoma) of 4.75 µM and a TGI (UACC-62 melanoma) of 27.7 µM. For the same compound, the GI50 (NCI-H460 lung) was 4.71 µM, the TGI (NCI-H460 lung) was over 100 µM and the GI50 (UACC-257 melanoma) was 9.82 µM. The TGI (UACC-257 melanoma) was over 100 µM, the GI50 (SW-620 colon) was over 100 µM and the TGI (SW-620 colon) was over 100 µM. For the same compound, the GI50 (OVCAR-8 ovarian) was 4.45 µM, the TGI (OVCAR-8 ovarian) was 67.5 µM and the GI50 (MDA-MB-231 breast) was 14.8 µM. It also gave a TGI (MDA-MB-231 breast) of over 100 µM, a GI50 (SK-MEL-28 melanoma) of 7.34 µM and a TGI (SK-MEL-28 melanoma) of over 100 µM. For the same compound, the GI50 (SF-268 CNS) was 5.96 µM, the TGI (SF-268 CNS) was 42.7 µM and the GI50 (SNB-75 CNS) was 4.01 µM. It also gave a TGI (SNB-75 CNS) of 18.3 µM, a GI50 (RXF 393 renal) of 2.23 µM and a TGI (RXF 393 renal) of 8.98 µM. For the same compound, the GI50 (T-47D breast) was 4.4 µM, the TGI (T-47D breast) was over 100 µM and the GI50 (NCI-H226 lung) was 4.17 µM. The TGI (NCI-H226 lung) was 47.4 µM, the GI50 (DU-145 prostate) was 5.92 µM and the TGI (DU-145 prostate) was over 100 µM. For the same compound, the GI50 (SNB-19 CNS) was 9.28 µM, the TGI (SNB-19 CNS) was 51.9 µM and the GI50 (MDA-MB-435) was 3.79 µM. For the same compound, the TGI (MDA-MB-435) was over 100 µM, the GI50 (ACHN renal) was 7.29 µM and the TGI (ACHN renal) was over 100 µM. The GI50 (PC-3 prostate) was 7.05 µM, the TGI (PC-3 prostate) was over 100 µM and the GI50 (TK-10 renal) was 14 µM. It also gave a TGI (TK-10 renal) of 58.7 µM, a GI50 (SN12C renal) of 8.44 µM and a TGI (SN12C renal) of over 100 µM. The GI50 (SF-539 CNS) was 6.42 µM, the TGI (SF-539 CNS) was 26.1 µM and the GI50 (BT-549 breast) was 3.75 µM. For the same compound, the TGI (BT-549 breast) was 38.4 µM, the GI50 (K-562 leukemia) was over 100 µM and the TGI (K-562 leukemia) was over 100 µM. For the same compound, the GI50 (SK-MEL-5 melanoma) was 11.1 µM, the TGI (SK-MEL-5 melanoma) was 77.3 µM and the GI50 (SK-MEL-2 melanoma) was 2.76 µM. It also gave a TGI (SK-MEL-2 melanoma) of 9.06 µM, a GI50 (HOP-62 NSCLC) of 3.83 µM and a TGI (HOP-62 NSCLC) of 19.7 µM. For the same compound, the GI50 (OVCAR-3 ovarian) was 4.41 µM, the TGI (OVCAR-3 ovarian) was over 100 µM and the GI50 (HCC-2998 colon) was over 100 µM. The TGI (HCC-2998 colon) was over 100 µM, the GI50 (UO-31 renal) was 7.07 µM and the TGI (UO-31 renal) was over 100 µM. For the same compound, the GI50 (HOP-92 NSCLC) was 6.21 µM, the TGI (HOP-92 NSCLC) was 29.6 µM and the GI50 (RPMI-8226 leukemia) was 3.01 µM. For the same compound, the TGI (RPMI-8226 leukemia) was over 100 µM, the GI50 (SR leukemia) was 2.08 µM and the TGI (SR leukemia) was over 100 µM. The GI50 (CAKI-1 renal) was 24.9 µM, the TGI (CAKI-1 renal) was over 100 µM and the GI50 (NCI/ADR-RES ovarian) was 4.69 µM. For the same compound, the TGI (NCI/ADR-RES ovarian) was over 100 µM, the GI50 (A549 NSCLC) was 41.2 µM and the TGI (A549 NSCLC) was over 100 µM. For the same compound, the GI50 (SK-OV-3 ovarian) was 24.4 µM and the TGI (SK-OV-3 ovarian) was over 100 µM.
